# Test results: ChEMBL document CHEMBL4813985, “Lead optimization generates selenium-containing miconazole CYP51 inhibitors with improved pharmacological profile for the treatment of fungal infections” (Eur J Med Chem, 2021)
# Calls of active or inactive are those of the source. The rule behind the calls is not given here.
# Columns and labels:
# [1] = system: Candida albicans; test: Anti-biofilm activity in Candida albicans CPCC400616 assessed as inhibition of biofilm formation incubated for 24 hrs with 24 hrs precultured fungal suspension by XTT assay; format: functional
# [2] = system: Aspergillus fumigatus; test: Antifungal activity against Aspergillus fumigatus CMGCC3.7795 measured after 72 hrs by broth microdilution assay; format: functional
# [3] = biological target: T1, Lanosterol 14-alpha demethylase (Candida albicans (strain SC5314 / ATCC MYA-2876) (Yeast), UniProt P10613); test: Inhibition of CYP51 in Candida albicans ATCC SC5314 assessed as lanosterol level at 0.5 ug/ml after 16 hrs by GC-MS analysis (reference value: 1.7%); parameters: scale not given: the % may be the effect or the level left; conditions: candida albicans sc5314, 16 h, at 0.5 µg/mL
# [4] = system: Nakaseomyces glabratus; test: Antifungal activity against Candida glabrata measured after 24 hrs by broth microdilution assay; format: functional
# [5] = system: Candida parapsilosis; test: Antifungal activity against Candida parapsilosis ATCC 22019 measured after 24 hrs by broth microdilution assay; format: functional; conditions: Lodderomyces parapsilosis
# [6] = system: Candida albicans; test: Antifungal activity against Candida albicans CPCC400616 measured after 24 hrs by broth microdilution assay; format: functional
# [7] = biological target: T1, Lanosterol 14-alpha demethylase; test: Inhibition of CYP51 in Candida albicans ATCC SC5314 assessed as Eburicol level at 2 ug/ml after 16 hrs by GC-MS analysis (reference value: 0%); parameters: scale not given: the % may be the effect or the level left; conditions: candida albicans sc5314, 16 h, at 2 µg/mL
# [8] = system: [Candida] zeylanoides; test: Antifungal activity against Candida zeylanoides CMGCC2.3739 measured after 24 hrs by broth microdilution assay; format: functional; conditions: Dujonia zeylanoides
# [9] = system: Candida albicans; test: Antifungal activity against fluconazole-resistant Candida albicans 632 assessed as inhibition of microbial growth after 24 hrs by broth microdilution method; format: functional
# [10] = biological target: T1, Lanosterol 14-alpha demethylase; test: Inhibition of CYP51 in Candida albicans ATCC SC5314 assessed as Eburicol level at 0.5 ug/ml after 16 hrs by GC-MS analysis (reference value: 0%); parameters: scale not given: the % may be the effect or the level left; conditions: candida albicans sc5314, 16 h, at 0.5 µg/mL
# [11] = biological target: T1, Lanosterol 14-alpha demethylase; test: Inhibition of CYP51 in Candida albicans ATCC SC5314 assessed as ergosterol level at 8 ug/ml after 16 hrs by GC-MS analysis (reference value: 98.3%); parameters: scale not given: the % may be the effect or the level left; conditions: candida albicans sc5314, 16 h, at 8 µg/mL
# [12] = system: Candida albicans; test: Antifungal activity against fluconazole-resistant Candida albicans 901 assessed as inhibition of microbial growth after 24 hrs by broth microdilution method; format: functional
# [13] = biological target: T1, Lanosterol 14-alpha demethylase; test: Inhibition of CYP51 in Candida albicans ATCC SC5314 assessed as ergosterol level at 2 ug/ml after 16 hrs by GC-MS analysis (reference value: 98.3%); parameters: scale not given: the % may be the effect or the level left; conditions: candida albicans sc5314, 16 h, at 2 µg/mL
# [14] = system: Candida albicans; test: Antifungal activity against fluconazole-resistant Candida albicans CaR assessed as inhibition of microbial growth after 24 hrs by broth microdilution method; format: functional
# [15] = biological target: T1, Lanosterol 14-alpha demethylase; test: Inhibition of CYP51 in Candida albicans ATCC SC5314 assessed as lanosterol level at 8 ug/ml after 16 hrs by GC-MS analysis (reference value: 1.7%); parameters: scale not given: the % may be the effect or the level left; conditions: candida albicans sc5314, 16 h, at 8 µg/mL
# [16] = biological target: T1, Lanosterol 14-alpha demethylase; test: Inhibition of CYP51 in Candida albicans ATCC SC5314 assessed as ergosterol level at 0.03125 ug/ml after 16 hrs by GC-MS analysis (reference value: 98.3%); parameters: scale not given: the % may be the effect or the level left; conditions: candida albicans sc5314, 16 h, at 0.03125 µg/mL
# [17] = biological target: T1, Lanosterol 14-alpha demethylase; test: Inhibition of CYP51 in Candida albicans ATCC SC5314 assessed as Eburicol level at 0.03125 ug/ml after 16 hrs by GC-MS analysis (reference value: 0%); parameters: scale not given: the % may be the effect or the level left; conditions: candida albicans sc5314, 16 h, at 0.03125 µg/mL
# [18] = system: Cryptococcus neoformans; test: Antifungal activity against Cryptococcus neoformans CMGCC2.3161 measured after 72 hrs by broth microdilution assay; format: functional
# [19] = biological target: T1, Lanosterol 14-alpha demethylase; test: Inhibition of CYP51 in Candida albicans ATCC SC5314 assessed as Obtusifoliol level at 0.5 ug/ml after 16 hrs by GC-MS analysis (reference value: 0%); parameters: scale not given: the % may be the effect or the level left; conditions: candida albicans sc5314, 16 h, at 0.5 µg/mL
# [20] = biological target: T1, Lanosterol 14-alpha demethylase; test: Inhibition of CYP51 in Candida albicans ATCC SC5314 assessed as lanosterol level at […] ug/ml after 16 hrs by GC-MS analysis (reference value: 1.7%); parameters: scale not given: the % may be the effect or the level left; conditions: candida albicans sc5314, 16 h, dose 0.125 µg/ml
# [21] = system: Candida albicans; test: Antifungal activity against Candida albicans ATCC SC5314 infected in mouse model of candidiasis assessed as reduction in kidney fungal burden at 0.6 mg/kg/day, ip dosed at 2 hrs post infection and dosed for 4 days; format: functional, organism-based; conditions: time 4.0 day
# [22] = biological target: T1, Lanosterol 14-alpha demethylase; test: Inhibition of CYP51 in Candida albicans ATCC SC5314 assessed as Obtusifoliol level at 8 ug/ml after 16 hrs by GC-MS analysis (reference value: 0%); parameters: scale not given: the % may be the effect or the level left; conditions: candida albicans sc5314, 16 h, at 8 µg/mL
# [23] = system: Pichia kudriavzevii; test: Antifungal activity against Candida krusei AS2.1045 measured after 24 hrs by broth microdilution assay; format: functional
# [24] = biological target: T1, Lanosterol 14-alpha demethylase; test: Inhibition of CYP51 in Candida albicans ATCC SC5314 assessed as Eburicol level at […] ug/ml after 16 hrs by GC-MS analysis (reference value: 0%); parameters: scale not given: the % may be the effect or the level left; conditions: candida albicans sc5314, 16 h, dose 0.125 µg/ml
# [25] = biological target: T1, Lanosterol 14-alpha demethylase; test: Inhibition of CYP51 in Candida albicans ATCC SC5314 assessed as lanosterol level at 0.03125 ug/ml after 16 hrs by GC-MS analysis (reference value: 1.7%); parameters: scale not given: the % may be the effect or the level left; conditions: candida albicans sc5314, 16 h, at 0.03125 µg/mL
# [26] = biological target: T1, Lanosterol 14-alpha demethylase; test: Inhibition of CYP51 in Candida albicans ATCC SC5314 assessed as ergosterol level at 0.5 ug/ml after 16 hrs by GC-MS analysis (reference value: 98.3%); parameters: scale not given: the % may be the effect or the level left; conditions: candida albicans sc5314, 16 h, at 0.5 µg/mL
# [27] = biological target: T1, Lanosterol 14-alpha demethylase; test: Inhibition of CYP51 in Candida albicans ATCC SC5314 assessed as Obtusifoliol level at 2 ug/ml after 16 hrs by GC-MS analysis (reference value: 0%); parameters: scale not given: the % may be the effect or the level left; conditions: candida albicans sc5314, 16 h, at 2 µg/mL
# [28] = biological target: T1, Lanosterol 14-alpha demethylase; test: Inhibition of CYP51 in Candida albicans ATCC SC5314 assessed as Eburicol level at 8 ug/ml after 16 hrs by GC-MS analysis (reference value: 0%); parameters: scale not given: the % may be the effect or the level left; conditions: candida albicans sc5314, 16 h, at 8 µg/mL
# [29] = biological target: T1, Lanosterol 14-alpha demethylase; test: Inhibition of CYP51 in Candida albicans ATCC SC5314 assessed as Obtusifoliol level at […] ug/ml after 16 hrs by GC-MS analysis (reference value: 0%); parameters: scale not given: the % may be the effect or the level left; conditions: candida albicans sc5314, 16 h, dose 0.125 µg/ml
# [30] = biological target: T1, Lanosterol 14-alpha demethylase; test: Inhibition of CYP51 in Candida albicans ATCC SC5314 assessed as ergosterol level at […] ug/ml after 16 hrs by GC-MS analysis (reference value: 98.3%); parameters: scale not given: the % may be the effect or the level left; conditions: candida albicans sc5314, 16 h, dose 0.125 µg/ml
# [31] = system: Candida albicans; test: Antifungal activity against fluconazole-resistant Candida albicans 17# assessed as inhibition of microbial growth after 24 hrs by broth microdilution method; format: functional
# [32] = system: Candida albicans; test: Antifungal activity against fluconazole-resistant Candida albicans 904 assessed as inhibition of microbial growth after 24 hrs by broth microdilution method; format: functional
# [33] = biological target: T1, Lanosterol 14-alpha demethylase; test: Inhibition of CYP51 in Candida albicans ATCC SC5314 assessed as Obtusifoliol level at 0.03125 ug/ml after 16 hrs by GC-MS analysis (reference value: 0%); parameters: scale not given: the % may be the effect or the level left; conditions: candida albicans sc5314, 16 h, at 0.03125 µg/mL
# [34] = system: Candida albicans; test: Antifungal activity against Candida albicans ATCC SC5314 measured after 24 hrs by broth microdilution assay; format: functional
# [35] = biological target: T1, Lanosterol 14-alpha demethylase; test: Inhibition of CYP51 in Candida albicans ATCC SC5314 assessed as lanosterol level at 2 ug/ml after 16 hrs by GC-MS analysis (reference value: 1.7%); parameters: scale not given: the % may be the effect or the level left; conditions: candida albicans sc5314, 16 h, at 2 µg/mL
# T1 sequence (P10613 whole entry): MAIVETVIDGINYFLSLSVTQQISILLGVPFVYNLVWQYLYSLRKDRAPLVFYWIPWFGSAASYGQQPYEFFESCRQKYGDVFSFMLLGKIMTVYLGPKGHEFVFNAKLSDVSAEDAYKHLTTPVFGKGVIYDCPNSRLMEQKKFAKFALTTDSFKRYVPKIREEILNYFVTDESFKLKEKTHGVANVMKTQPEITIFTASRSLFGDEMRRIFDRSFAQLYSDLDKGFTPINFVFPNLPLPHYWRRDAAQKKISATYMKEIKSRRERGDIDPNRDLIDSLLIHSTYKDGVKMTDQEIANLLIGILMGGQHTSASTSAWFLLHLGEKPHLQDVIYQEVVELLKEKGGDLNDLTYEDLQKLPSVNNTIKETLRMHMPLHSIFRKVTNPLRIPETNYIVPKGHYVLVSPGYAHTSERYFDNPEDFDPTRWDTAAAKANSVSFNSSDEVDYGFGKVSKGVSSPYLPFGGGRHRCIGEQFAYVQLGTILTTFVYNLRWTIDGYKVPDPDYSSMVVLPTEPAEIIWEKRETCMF
smiles,measurement,setting,value
OC(Cn1cncn1)(Cn1cncn1)c1ccc(F)cc1F [FLUCONAZOLE],MIC,[1],> 1020 µg/mL
same,MIC,[2],> 128 µg/mL
same,Activity,[3],11.6%
same,MIC,[4],32 µg/mL
same,MIC,[5],4 µg/mL
same,MIC,[6],4 µg/mL
same,Activity,[7],63.5%
same,MIC,[8],4 µg/mL
same,MIC,[9],> 128 µg/mL
same,Activity,[10],6.7%
same,Activity,[11],4.2%
same,MIC,[12],> 128 µg/mL
same,Activity,[13],19.8%
same,MIC,[14],> 128 µg/mL
same,Activity,[15],14.1%
same,Activity,[16],86.34%
same,Activity,[17],2.9%
same,MIC,[18],4 µg/mL
same,Activity,[19],2.9%
same,Activity,[20],12.4%
same,Activity,[21],Active
same,Activity,[22],11.4%
same,MIC,[23],32 µg/mL
same,Activity,[24],5.3%
same,Activity,[25],9.8%
same,Activity,[26],78.9%
same,Activity,[27],9.5%
same,Activity,[28],70.3%
same,Activity,[29],1.6%
same,Activity,[30],80.8%
same,MIC,[31],128 µg/mL
same,MIC,[32],> 128 µg/mL
same,Activity,[33],1%
same,MIC,[34],1 µg/mL
same,Activity,[35],7.2%
